These compounds were tested against T1, human IDO1 (Homo sapiens, UniProt P14902) (assay: HEK293 human IDO1 cell-based IDO inhibition assay). Details: read-out: HEK Human IDO-1 Potency.
T1 construct: expressed in transfected cells
Method: 1HEK293 cells were transfected with a pCDNA-based mammalian expression vector harboring human IDO1 cDNA (NM 002164.2) by electroporation. They were cultured in medium (DMEM with 10% FBS) containing 1 mg/ml G418 for two weeks. Clones of HEK293 cells that stably expressed human IDO1 protein were selected and expanded for IDO inhibition assay.
The human IDOL/HEK293 cells were seeded at 10,000 cells per 50 μL per well with RPMI/phenol red free media contains 10% FBS in a 384-well black wall clear bottom tissue culture plate (Matrix Technologies LLC) 100 nL of certain concentration of compound was then added to each well using ECHO liquid handling systems. The cells were incubated for 20 hours in 37° C. incubator with 5% CO2.
The compound treatments were stopped by adding Trichloroacetic Acid (Sigma-Aldrich) to a final concentration at 0.2%. The cell plate was further incubated at 50° C. for 30 minute. The equal volume supernatant (20 μL) and 0.2% (w/v) Ehrlich reagent (4-dimethylaminobenzaldehyde, Sigma-Aldrich) in glacial acetic acid were mixed in a new clear bottom 384-well plate. This plate was then incubated at room temperature for 30 minute. The absorbance at 490 nm was measured on Envision plate reader.

T1 sequence (P14902 whole entry): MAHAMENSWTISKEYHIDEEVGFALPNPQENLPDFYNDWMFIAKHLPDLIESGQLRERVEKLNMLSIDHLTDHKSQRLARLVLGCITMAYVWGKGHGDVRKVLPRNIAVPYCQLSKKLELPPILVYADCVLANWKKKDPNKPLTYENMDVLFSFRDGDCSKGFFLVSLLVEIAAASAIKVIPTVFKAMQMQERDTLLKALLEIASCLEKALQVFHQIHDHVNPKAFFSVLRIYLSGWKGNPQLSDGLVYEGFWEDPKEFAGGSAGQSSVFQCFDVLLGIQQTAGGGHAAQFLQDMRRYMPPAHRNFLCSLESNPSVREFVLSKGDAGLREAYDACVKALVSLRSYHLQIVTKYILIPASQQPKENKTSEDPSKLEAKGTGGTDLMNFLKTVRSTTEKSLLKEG

Row | IC50 | Compound
1 | < 50 nM | C[C@H](C(=O)Nc1ccc(Cl)cc1)[C@H]1CC[C@@H](c2ccnc3cn[nH]c32)CC1 (single isomer, unassigned) [Example 150a]
2 | < 50 nM | CCC(C(=O)Nc1ccc(Cl)cc1)C1CCC(c2ccnc3ccc(F)cc23)CC1 (mixture of isomers) [Example 154, N-(4-Chlorophenyl)-2-(4-(6-fluoroquinolin-4-yl)cyclohexyl)butanamide]
3 | < 50 nM | CCOc1ccc(NC(=O)C(C)N2CCC(Oc3ccnc4ccc(F)cc34)CC2)cc1 (stereo not shown) [compound 107]
4 | < 50 nM | Cc1cccc(NC(=O)[C@H](C)[C@H]2CC[C@@H](c3ccnc4ccc(F)cc43)CC2)c1 [Example 72, (R)-2-((cis)-4-(6-fluoroquinolin-4-yl)cyclohexyl)-N-(m-tolyl)propanamide]
5 | < 50 nM | COC(=O)c1ccc(NC(=O)[C@H](C)[C@H]2CC[C@@H](c3ccnc4ccc(F)cc43)CC2)cc1 [Example 68, methyl 4-((R)-2-((cis)-4-(6-fluoroquinolin-4-yl)cyclohexyl)propanamido)benzoate]
6 | < 50 nM | CCC(C(=O)Nc1ccc(Cl)cc1)[C@H]1CC[C@H](Oc2ccnc3ccccc23)CC1 (mixture of isomers) [Example 85, (±)—N-(4-Chlorophenyl)-2-((trans)-4-(quinolin-4-yloxy)cyclohexyl)butanamide]
7 | > 250 nM | C[C@@H](C(=O)Nc1ccc(Cl)cc1)[C@H]1CC[C@@H](c2ccnc3cn[nH]c32)CC1 (single isomer, unassigned) [Example 150b]
8 | > 250 nM | C[C@H](C(=O)Nc1ccc(Cl)cc1)[C@H]1CC[C@H](c2ccnc3cn[nH]c32)CC1 (single isomer, unassigned) [Example 150c]
9 | > 250 nM | C[C@@H](C(=O)Nc1ccccc1Oc1ccccc1)[C@H]1CC[C@@H](c2ccnc3ccc(F)cc32)CC1 [Example 73a, (R)-2-((cis)-4-(6-fluoroquinolin-4-yl)cyclohexyl)-N-(2-phenoxyphenyl)propanamide]
10 | < 50 nM | CCCC(C(=O)NC1(C)CCCCC1)N1CCN(c2ccnc3ccc(F)cc23)CC1 (single isomer, unassigned) [Example 249, 2-(4-(6-Fluoroquinolin-4-yl)piperazin-1-yl)-N-(1-methylcyclohexyl)pentanamide]
11 | > 250 nM | COCC(C(=O)Nc1ccc(Cl)cc1)N1CCN(c2ccnc3ccc(F)cc23)CC1 (racemic) [Example 133, (±)—N-(4-Chlorophenyl)-2-(4-(6-fluoroquinolin-4-yl)piperazin-1-yl)-3-methoxypropanamide]
12 | < 50 nM | C[C@H](C(=O)Nc1ccc(Cl)cc1)[C@H]1CC[C@@H](c2ccnc3ccc(I)cc32)CC1 (single isomer, unassigned) [Example 152a]
13 | > 250 nM | C[C@@H](C(=O)Nc1ccc(Cl)cc1)[C@H]1CC[C@H](c2ccnc3ccnn32)CC1 (single isomer, unassigned) [Example 144d]
14 | > 250 nM | CCC(C(=O)Nc1ccc(Cl)cc1)[C@H]1CC[C@H](Oc2ccnc3cc(C(F)(F)F)ccc23)CC1 (single isomer, unassigned) [Example 83a, N-(4-Chlorophenyl)-2-((trans)-4-((7-(trifluoromethyl)quinolin-4-yl)oxy)cyclohexyl)-2-butanamide]
15 | > 250 nM | O=C(CN1CCC(Oc2ccc3nccc(Cl)c3c2)CC1)Nc1ccc(Cl)cc1 [Example 90, N-(4-Chlorophenyl)-2-(4-((4-chloroquinolin-6-yl)oxy)piperidin-1-yl)acetamide]
16 | > 250 nM | CCC(C(=O)Nc1ccc(Cl)cc1)N1CCC(Oc2ccnc3ccc(F)cc23)CC1 (stereo not shown) [compound 112]
17 | < 250 nM | CC(C(=O)Nc1ccc(Cl)cc1)N1CCN(c2ccnc3ccc(F)cc23)CC1 (single isomer, unassigned) [Example 129, N-(4-Chlorophenyl)-2-(4-(6-fluoroquinolin-4-yl)piperazin-1-yl)propanamide]
18 | < 250 nM | CCC(C(=O)Nc1ccc(Cl)cc1)[C@H]1CC[C@@H](Oc2cc(C(F)(F)F)nc3ccccc23)CC1 (single isomer, unassigned) [Example 88b, N-(4-Chlorophenyl)-2-((cis)-4-((2-(trifluoromethyl)quinolin-4-yl)oxy)cyclohexyl)butanamide]
19 | < 250 nM | CCCC(C(=O)Nc1ccc(Cl)cc1)N1CCN(c2ccnc3ccc(F)cc23)CC1 (racemic) [Example 244, (±)—N-(4-Chlorophenyl)-2-(4-(6-fluoroquinolin-4-yl)piperazin-1-yl)pentanamide]
20 | < 250 nM | C[C@@H](C(=O)Nc1cccc(C#N)c1)[C@H]1CC[C@@H](c2ccnc3ccc(F)cc32)CC1 [Example 79, (R)-N-(3-cyanophenyl)-2-((cis)-4-(6-fluoroquinolin-4-yl)cyclohexyl)propanamide]

Row | IC50 | Compound
21 | < 250 nM | CCOc1ccc(NC(=O)CC2(C)CCN(c3ccnc4ccc(F)cc34)CC2)cc1 [Example 125]
22 | < 50 nM | C[C@@H](C(=O)Nc1ccc(Cl)cc1)[C@H]1CC[C@H](c2ccnc3cn[nH]c32)CC1 (single isomer, unassigned) [Example 150d]
23 | < 250 nM | CCOc1ccccc1NC(=O)[C@H](C)[C@H]1CC[C@@H](c2ccnc3ccc(F)cc32)CC1 [Example 62, (R)-N-(2-ethoxyphenyl)-2-((cis)-4-(6-fluoroquinolin-4-yl)cyclohexyl)propanamide]
24 | > 250 nM | CCC(C(=O)Nc1ccc(Cl)cc1)[C@H]1CC[C@@H](Oc2ccnc3ccc(C(F)(F)F)cc23)CC1 (single isomer, unassigned) [Example 89b, N-(4-Chlorophenyl)-2-((cis)-4-((6-(trifluoromethyl)quinolin-4-yl)oxy)cyclohexyl)butanamide]
25 | < 50 nM | CCOc1ccc(NC(=O)C(C)N2CCC(Oc3ccnc4ccc(F)cc34)CC2)cc1 (stereo not shown) [compound 100]
26 | < 50 nM | CC(C(=O)Nc1ccc(Cl)cc1)C1CCC(c2ccnc3ncccc23)CC1 (racemic) [Example 147, (±)-2-(Cis- and trans-4-(1,8-naphthyridin-4-yl)cyclohexyl)-N-(4-chlorophenyl)propanamide]
27 | < 250 nM | O=C(CN1CCC(Oc2ccnc3ccc(F)cc23)CC1)Nc1ccc(Cl)cc1 [Example 95, N-(4-Chlorophenyl)-2-(4-((6-fluoroquinolin-4-yl)oxy)piperidin-1-yl)acetamide]
28 | < 50 nM | CCC(C(=O)Nc1ccc(Cl)cc1)[C@H]1CC[C@H](Oc2ccnc3c(C(F)(F)F)cccc23)CC1 (stereo partly drawn) [Example 86, N-(4-Chlorophenyl)-2-((trans)-4-((8-(trifluoromethyl)quinolin-4-yl)oxy)cyclohexyl)butanamide]
29 | > 250 nM | C[C@H](C(=O)Nc1ccc(Cl)cc1)[C@H]1CC[C@@H](c2ccnc3ncccc32)CC1 (single isomer, unassigned) [Example 148a]
30 | > 250 nM | Cc1cc(Cl)ccc1NC(=O)CC1CCN(c2ccnc3ccc(F)cc23)CC1 [Example 119]
31 | < 250 nM | O=C(CC1CCN(Cc2ccnc3ccccc23)CC1)Nc1ccc(F)cc1 [Example 114, N-(4-Fluorophenyl)-2-(1-(quinolin-4-ylmethyl)piperidin-4-yl)acetamide]
32 | > 250 nM | CC1(CC(=O)Nc2ccc(F)cc2)CCN(c2ccnc3ccc(F)cc23)CC1 [Example 120, N-(4-Fluorophenyl)-2-(1-(6-fluoroquinolin-4-yl)-4-methylpiperidin-4-yl)acetamide]
33 | < 50 nM | CC(C(=O)O)c1ccc(C[C@@H](C(=O)Nc2ccc(Cl)cc2)[C@H]2CC[C@@H](c3ccnc4ccc(F)cc43)CC2)cc1 (single isomer, unassigned) [Example 138]
34 | < 50 nM | CC(C(=O)Nc1ccc(Cl)cc1)[C@H]1CC[C@H](Oc2ccnc3ncccc23)CC1 (mixture of isomers) [Example 153, (±)-2-((trans)-4-((1,8-Naphthyridin-4-yl)oxy)cyclohexyl)-N-(4-chlorophenyl)propanamide]
35 | < 50 nM | CC(C(=O)Nc1ccc(Cl)cc1)N1CCC(Oc2ccc3nccc(Cl)c3c2)CC1 (single isomer, unassigned) [Example 93]
36 | < 50 nM | C[C@@H](C(=O)Nc1ccc(Cl)cc1)[C@H]1CC[C@@H](c2ccnc3ncccc32)CC1 (single isomer, unassigned) [Example 148b]
37 | < 250 nM | CCC(C(=O)Nc1ccc(Cl)cc1)[C@H]1CC[C@H](Oc2ccnc3cc(C(F)(F)F)ccc23)CC1 (single isomer, unassigned) [Example 83b, N-(4-Chlorophenyl)-2-((trans)-4-((7-(trifluoromethyl)quinolin-4-yl)oxy)cyclohexyl)-2-butanamide]
38 | < 50 nM | C[C@@H](C(=O)Nc1ccc(Cl)cc1)[C@H]1CC[C@@H](c2ccnc3c2ncn3C)CC1 (single isomer, unassigned) [Example 251a, N-(4-chlorophenyl)-2-(4-(3-methyl-3H-imidazo[4,5-b]pyridin-7-yl)cyclohexyl)propanamide]
39 | < 50 nM | C[C@@H](C(=O)Nc1ccc(Cl)cc1)[C@H]1CC[C@@H](c2ccnc3c2ncn3C)CC1 (single isomer, unassigned) [Example 251c, N-(4-chlorophenyl)-2-(4-(3-methyl-3H-imidazo[4,5-b]pyridin-7-yl)cyclohexyl)propanamide]
40 | < 250 nM | C[C@H](C(=O)Nc1ccc(Cl)cc1)[C@H]1CC[C@H](c2ccnc3ccc(I)cc32)CC1 (single isomer, unassigned) [Example 152c]

— patent publication US20180282281A1, “IMMUNOREGULATORY AGENTS” (FLEXUS BIOSCIENCES, INC., priority 2014, published 2018)
